{"source": "patent US9422363B2", "about": "“Synthetic apolipoprotein E mimicking polypeptides and methods of use” (UAB RESEARCH FOUNDATION, priority 2007, dated 2016)", "key": {"[1]": {"system": "WHHL rabbits", "assay": "Ac-hE18A-NH2 in WHHL rabbits: plasma PON, lipid hydroperoxides, cholesterol, endothelial function", "format": "in vivo, rabbit", "details": "plasma of WHHL rabbits; p<0.05; FIG. 1", "text": "These rabbits have defective LDL receptors and therefore have increased atherogenic lipoproteins (mainly LDL). […] This was associated with improved aortic endothelial function. This improvement in endothelial function was mediated in part by increase in PON activity with associated decrease in plasma lipid hydroperoxide (FIG. 1). […] PON is an anti-oxidant enzyme associated with HDL and is responsible for scavenging LOOH in plasma. The lipid lowering effects of Ac-hE18A-NH2 in 1% cholesterol fed NZW-rabbits have also been shown. These animals have elevated cholesterol that are rich in VLDL type of particles."}, "[2]": {"system": "1% cholesterol fed NZW-rabbits", "assay": "Plasma cholesterol in high fat (1% cholesterol) diet rabbits", "format": "in vivo, rabbit", "details": "intravenously two times; end of 14 days (21 days after initiation of atherogenic diet); n=4; control about 2000 mg/dl"}, "[3]": {"system": "WHHL rabbits", "details": "single administration; cited from earlier work"}, "[4]": {"system": "ZDF (fa/fa) rats", "assay": "Onset and progression of DM-2 in male ZDF (fa/fa) rats: fasting plasma glucose, insulin, adiponectin", "format": "in vivo, rat", "procedure": "This example outlies studies carried out for the evaluation of the effects of these peptides in the prevention of onset and progression of DM-2. […] Baseline fasting plasma was collected prior to peptide administration. Biweekly injections (6 for Ac-hE18A-NH2 group and 5 for L-4F group were administered before day 18). From day 18-day 33, no additional peptide/vehicle injection were performed. […] (B) Corresponding insulin levels are depicted in the control and Ac-hE18A-NH2 group only. Control animals become relatively insulin resistant at day 18 as depicted by hyperinsulinemia and hyperglycemia. […] Data are expressed as Mean±SEM; *p<0.05.\nRelatively infrequent injections (biweekly) of the peptides as compared to vehicle were able to improve glucose homeostasis in the ZDF rats. Form the studies it was determined that adiponectin levels in the peptide treated animals were much higher than in controls at day 33 (5.7±1 vs. […], p<0.05). […] Adiponectin also prevents the production and action of pro-inflammatory TNF-α and IL-6 and induces anti-inflammatory cytokine IL-10 and IL-1 receptor antagonist. A summary of the potential effects of the peptides on liver, pancreas, peripheral tissue, blood and blood vessel are depicted in FIG. 5."}, "[5]": {"system": "1% cholesterol fed NZW-rabbits", "assay": "Plasma turbidity and aortic atherosclerosis (en face Oil Red O) in 1% cholesterol fed NZW rabbits", "format": "in vivo, rabbit", "procedure": "In another set of experiments it was noted that Ac-hE18A-NH2 clears the plasma turbidity in 1% cholesterol fed NZW-rabbits. 3 mg/kg of peptide was administered intravenously/week. The rabbits were sacrificed after 51 days from the start of diet. Aortas were harvested and en face analysis was done on Oil Red O stained tissue samples. […] This was associated with decrease in atherogenic lipoproteins and inhibition of atherosclerosis at day 51."}, "[6]": {"details": "5 mg/kg i.v. biweekly, day 18, versus control"}, "[7]": {"details": "day 33, no additional peptide after day 18"}, "[8]": {"details": "1% cholesterol fed NZW rabbits, 3 mg/kg i.v./week, day 51"}}}
{"substance": "Ac-LRKLRKRLLRDWLKAFYDKVAEKLKEAF-NH2 [Ac-hE18A-NH2]", "values": [{"measurement": "HDL associated Paraoxonase (PON) activity", "setting": "[1]", "value": "increase"}, {"measurement": "lipid hydroperoxides (LOOH)", "setting": "[1]", "value": "decrease"}, {"measurement": "plasma cholesterol levels", "setting": "[2]", "value": "~1000", "unit": "mg/dL"}, {"measurement": "LDL cholesterol", "setting": "[3]", "value": "dramatic decrease"}, {"measurement": "aortic endothelial function", "setting": "[3]", "value": "improved"}, {"measurement": "total cholesterol", "setting": "[3]", "value": "dramatic decrease"}, {"measurement": "fasting plasma glucose", "setting": "[4]; 5 mg/kg i.v. biweekly until day 18, day 18 and day 33, versus control", "value": "only mild increase"}, {"measurement": "plasma glucose levels", "setting": "[4]; 5 mg/kg i.v. biweekly, day 18", "value": "normal"}, {"measurement": "insulin resistance", "setting": "[4]; [6]", "value": "much less"}, {"measurement": "plasma insulin levels", "setting": "[4]; [6]", "value": "lower"}, {"measurement": "beta cell function", "setting": "[4]; day 18 to day 33, no additional peptide", "value": "relatively preserved"}, {"measurement": "plasma glucose", "setting": "[4]; [7]", "value": "milder increase"}, {"measurement": "plasma insulin", "setting": "[4]; [7]", "value": "increase"}, {"measurement": "atherogenic lipoproteins", "setting": "[5]; [8]", "value": "decrease"}, {"measurement": "atherosclerosis (en face analysis of Oil Red O stained aortas)", "setting": "[5]; [8]", "value": "inhibits"}, {"measurement": "plasma turbidity", "setting": "[5]; 1% cholesterol fed NZW-rabbits, 3 mg/kg intravenously/week", "value": "clears"}]}
